“Also recorded” adds a separate entry of the source.

In data set [1] the test system is A549 cells expressing p53Ψ. Nature of the data set: MitoSOX staining of mitochondrial superoxide. Conditions: MitoSOX 1 μM. Format: cell-based, human. The procedure:
FIG. 6A presents Western blot analysis of mitochondrial fractions of A549 cells ectopically expressing p53Ψ. The fractions were immunoprecipitated with a CypD-specific antibody and probed with a p53 N-terminal antibody, or CypD and Smurf1 antibodies as controls. […] FIG. 6B depicts a schematic of the calcein AM assay. […] The fluorescence was detected by laser confocal microscopy after 15 minutes. Non-mitochondrial calcein fluorescence was quenched by co-treatment with CoCl2. Treatment with the ionophore ionomycin (50 nM) was used as a control. […] FIG. 6D presents the % decrease in calcein fluorescence upon quenching of cytosolic calcein with CoCl2 in three independent experiments. The median calcein fluorescence was assessed by FACS. Calcein was loaded at 10 nM and detected after 15 minutes at 515 nm upon excitation with Red HeNe at 495 nm. Treatment with ionomycin was used as a control to estimate basal fluorescence. FIG. 6E presents representative fluorescence microscopy images of A549 cells loaded with MitoSOX (1 μM). Images show the fluorescence upon excitation at 390 nm, mainly from the hydroxyethidium derivative. DAPI was used as a counterstain. FIG. 6F presents the quantification of the MitoSox-positive fractions in three independent FACS experiments from FIG. 6E. […]

Data set [2] has as its system cells ectopically expressing p53Ψ (A549, MCF7, H1299). Nature of the data set: EMT induction by p53Ψ upon modulation of CypD. Format: cell-based, human. The procedure: (§1) To determine whether CypD and ROS have a causative role in EMT mediated by p53Ψ, CypD and ROS levels were modulated in cells ectopically expressing p53Ψ (A549, MCF7, H1299) and their effects on expression of EMT markers and cell invasion were assessed.

Data set [3] concerns H1299 cells ectopically expressing p53Ψ. Nature of the data set: qRT-PCR of EMT markers in H1299 cells. The format is cell-based, human. Conditions: 2 mM CsA for 5 days.
Data set [4] has as its system MCF7 cells ectopically expressing p53Ψ. Nature of the data set: real-time PCR of EMT markers in MCF7 cells. The format is cell-based, human. The note with it: CsA 2 mM for 5 days. (Quantitative PCR measures a nucleic acid by following its amplification.)
For data set [5], the system named is A549 cells ectopically expressing p53Ψ. Kind of data set: wound healing (cell motility) assay. The format is cell-based, human. The note with it: 2 mM CsA for 5 days, closure at 48 hours. Here is the method:
(§2) FIG. 7A presents Western blot analysis of A549 cells ectopically expressing p53Ψ upon transfection with two independent siRNA targeting cyclophilin D (CypD). […] Data represent expression levels compared to actin (mean±SD, n=6; p<0.0001, Student's t-test) as measured by SYBR-green-based real-time RT-PCR. […] Cell motility was measured in a standard wound healing experiment. […] Each bar represents the average of four individual wounds. […] Data represent relative expression compared to the vector control (mean±SD, n=6; p<0.0001, Student's t-test). […] Cells were treated for 5 days with 10 mM NAC. FIG. 7F presents a schematic of a proposed mechanism of the p53Ψ-induced EMT. Upon acute oxidative stress, p53FL was previously shown to interact with CypD and trigger necrotic cell death by opening mPTP pore (left panel).
as §1

Data set [6] concerns E-cadherin. Nature of the data set: E-cadherin mRNA upon H2O2 treatment (SYBR-green real-time RT-PCR). Format: cell-based. Here is the method:
as §2, §1

The subject of data set [7] is A549 cells expressing p53Ψ. Kind of data set: epistasis experiment: CypD silencing and NAC, E-cadherin Western blot. Format: cell-based, human. The procedure:
(§3) Data shown represent relative expression compared to ectopic expression of a vector control (mean±SD, n=6; p<0.0001, Student's t-test). […] Cells were also treated with 10 mM NAC for 5 days. The cell extracts were probed for E-cadherin, p53, CypD, and as a control GAPDH. […] Cells were treated with 10 mM NAC or 500 μM Tempol for 5 days, then extracts were probed for E-cadherin, p53 and GAPDH as indicated. […] Cells were grown in the presence or absence of NAC (10 mM). After 5 days, the invasive potential of cells was determined using a standard Matrigel invasion assay. Filter chambers were coated with 40 μl Matrigel and invasion was assessed after 30 hours.
To exclude the possibility that ROS-induced EMT was independent of CypD in p53Ψ-expressing cells, epistasis experiments were performed. Specifically, E-cadherin expression was measured upon manipulation of ROS levels (e.g. by NAC treatment) in cells ectopically expressing p53Ψ in the presence and absence of CypD (FIG. 13B). If CypD and p53Ψ act on parallel pathways, an additive effect of CypD silencing and ROS inhibition would be predicted. In contrast, if p53Ψ acts solely through CypD, then CypD silencing would be sufficient to reduce ROS levels and no additive effect would be observed. […] This in turn is necessary and sufficient for p53Ψ-induced EMT (FIG. 7F, right panel).
Background: A western blot detects proteins with antibodies after separation by electrophoresis.

Data set [8] relates to mitochondrial permeability transition pore (mPTP) in A549 cells expressing p53Ψ. Nature of the data set: calcein AM assay of mPTP permeability. Format: cell-based, human. Conditions: ionomycin 50 nM, control; all experimental settings.
Description: In this assay, cells are loaded with Calcein (acetomethylester) together with its quencher Cobalt ions. Calcein freely diffuses throughout the cell including into the mitochondrial matrix. But the Cobalt quencher cannot diffuse across the inner mitochondrial membrane, therefore quenching Calcein fluorescence everywhere except in the mitochondrial matrix. Thus, Calcein fluorescence comes only from the matrix. Only upon PTP opening will Cobalt ions gain access to the matrix and quench Calcein, resulting in a sharp drop of mitochondrial fluorescence, which can be measured by FACS or microscopy (FIG. 6B).
For data set [9], the system named is A549 cells ectopically expressing p53Ψ. Nature of the data set: E-cadherin expression with ROS scavengers. The format is cell-based, human. Conditions: 10 mM NAC or 500 μM Tempol for 5 days. Here is the method:
as §2
Data shown represent relative expression compared to ectopic expression of a vector control (mean±SD, n=6; p<0.0001, Student's t-test). […] After 5 days, the invasive potential of cells was determined using a standard Matrigel invasion assay. Filter chambers were coated with 40 μl Matrigel and invasion was assessed after 30 hours.
as §1

For data set [10] the test system is unchanged. Nature of the data set: Matrigel invasion assay. Format: cell-based, human. Conditions: NAC 10 mM, 5 days, invasion assessed after 30 hours. Here is the method:
as §3, §1

Data set [11] has as its system HOP62 cells. Nature of the data set: p53Ψ silencing in HOP62 cells (morphology, qRT-PCR of EMT markers). The format is cell-based, human. An excerpt:
Representative micrographs are presented showing cells 4 days after transfection with a mixture of two independent siRNA oligonucleotides targeting p53. […] No difference in Snail expression was observed. Data shown represent relative expression levels compared to actin (mean±SD, n=6; p<0.0001, Student's t-test) as measured by SYBR-green-based real-time RT-PCR. […] Level of expression of p53FL and p53Ψ in MCF7 are provided in FIGS. 11B and 10E, respectively. FIG. 4D presents qRT-PCR analysis of the canonical EMT markers E-cadherin (ECAD) and vimentin (VIM) as well as the EMT master regulators Snail, Slug, Twist, and Zeb1, in H1299 cells ectopically expressing p53Ψ or p53FL. Data shown represent relative expression levels compared to actin (mean±SD, n=6; p<0.0001, Student's t-test) as measured by SYBR-green-based real-time RT-PCR. FIG. 4E depicts the percent wound closure at the indicated time points in a 2D monolayer of A549 cells expressing p53Ψ, p53FL, or vector control. […] Filter chambers were coated with 40 μl Matrigel, and invasion was assessed after 30 hours. TGF-β treated cells were used as a positive control.
Somatic alterations of the p53 tumor suppressor gene located on chromosome 17p often occur in cancers and are associated with poor prognosis. In these tumors, p53 mutations disable p53-mediated inhibition of proliferation and promotion of apoptosis in response to stress. In addition, missense p53 mutations may have gain-of-function activities that lead to an increased metastatic spread. […] To test this hypothesis p53Ψ expression was silenced in HOP62 cells. These mesenchymal cells are homozygous for the c.673−2A to G mutation and inherently express exclusively a p53Ψ-like isoform (FIG. 2I and FIG. 9O). […] Cells in which p53Ψ expression was silenced lost the elongated appearance typical of mesenchymal-like cells and instead acquired a cobblestone morphology characteristic of epithelial cells (FIG. 4A).

As to cyclosporin A [CsA], in [1], the “MitoSOX fluorescence (mitochondrial superoxide)” value was “decreased”. Further, the “EMT in cells expressing p53Ψ” value in [2] is “sufficient to prevent EMT”. Further, in [3], the “expression of E-cadherin (qRT-PCR)” value was “restore expression of E-cadherin to a level similar to that observed in control cells” and the “expression of EMT markers (qRT-PCR)” value is listed as “reduce expression of EMT markers”. Moreover, in data set [4], the “expression of E-cadherin (real-time PCR)” value is “restore expression of E-cadherin to levels similar to parental cells” and the “expression of EMT markers (real-time PCR)” value is recorded as “reduce expression of EMT markers”. Further, the “cell motility (wound healing)” value in [5] is recorded as “diminish cell motility”.

Consider `OO` [H2O2], for which the cell viability entry in data set [6] (low doses of H2O2) was “without compromising cell viability”. For the same molecule, the “expression of E-cadherin” value in data set [6] (low doses of H2O2 for 5 days) was “decreased the expression of E-cadherin”.

For the molecule “CypD siRNA: siRNA AGGCAGATGTCGTCCCAAA (SEQ ID NO:10); CGACTTCACCAACCACAAT (SEQ ID NO:11), from Invitrogen (listed as DNA, chemistry not given here)”, the “EMT in cells expressing p53Ψ” value in data set [2] was “sufficient to prevent EMT”. Moreover, in data set [7] (CypD silenced), the “p53Ψ-induced EMT” value was “blocked p53Ψ-induced EMT”.

For `C[C@H](CCC(=O)O)C[C@H](C)C[C@H](C)C(=O)/C=C(\O)[C@H](C)C[C@H](C)C/C=C/[C@@H](C)[C@@H](O)[C@@H](C)[C@@H](O)C[C@@H]1CC[C@@](C)([C@H]2CC[C@@](C)([C@@H](C)O)O2)O1` [ionomycin], the mitochondria calcein fluorescence result in [8] is given as “rapid loss of mitochondria calcein fluorescence”.

With `CC(=O)N[C@@H](CS)C(=O)O` [NAC, N-acetyl cysteine], the “expression of E-cadherin” value in data set [9] is recorded as “augmented expression of E-cadherin”. Also, the “invasive capabilities (Matrigel invasion)” value in data set [10] is “decreased invasive capabilities; also recorded: sufficient to decrease the invasion capabilities”. In data set [7] (CypD siRNA, 10 mM NAC for 5 days), the “E-cadherin expression in cells in which CypD was silenced” value was “did not increase E-cadherin expression”.

With “p53 siRNA: siRNA GGGTTAGTTTACAATCAGC (SEQ ID NO:5); GGTGAACCTTAGTACCTAA (SEQ ID NO:6), from Invitrogen (listed as DNA, chemistry not given here)”, the cell morphology result in [11] (4 days after transfection with two siRNA targeting p53) was “loss of mesenchymal-like features and the acquisition of an epithelial morphology”. Also, the Snail expression result in [11] (p53 siRNA) is on record as “No difference”. Besides, in data set [11] (p53Ψ knockdown), the “expression of E-cadherin” value is “increased expression of E-cadherin”; the “expression of vimentin, Zeb1, Twist and Slug” value is recorded as “diminished expression”.

Turning to `CC1(C)CC(O)CC(C)(C)N1[O]` [Tempol], in data set [9], the “expression of E-cadherin” value is “augmented expression of E-cadherin”. For the same molecule, in data set [10], the “invasive capabilities (Matrigel invasion)” value was “decreased invasive capabilities”.

The record behind these values is patent US10501741B2, “Methods and compositions for inhibiting growth and epithelial to mesenchymal transition (EMT) in cancer cells” (Cold Spring Harbor Laboratory, priority 2014, dated 2019).
